# From paper PMC10600239, “Selective MCL-1 inhibitor ABBV-467 is efficacious in tumor models but is associated with cardiac troponin increases in patients” (Communications Medicine, 2023)
# Like-named read-outs stand apart in the source and are kept apart here.
# Assays:
# [1] = Phase 1 first-in-human study (NCT04178902): pharmacokinetics; type: in vivo; conditions: for AUC(0-inf) / AUC(0-t) / clearance / Cmax / Tmax / half-life: plasma; for Cmax: read-out: Cmax; for Tmax: read-out: Tmax (converted)
# Excerpt: Other eligibility criteria included: Eastern Cooperative Oncology Group performance status ≤2, measurable disease as defined by International Myeloma Working Group (IMWG) consensus criteria, an echocardiogram with an ejection fraction ≥50%, and adequate hematologic, hepatic, and renal function. […] Safety evaluations included, but were not limited to, adverse event (AE) monitoring, physical examinations, vital sign measurements, electrocardiogram (ECG), cardiac enzyme monitoring, and clinical laboratory testing (hematology and chemistry) as a measure of safety and tolerability for the entire study duration. Parameters used to determine PK included maximum observed plasma concentration (Cmax), terminal elimination half-life (t1/2), area under the plasma concentration-time curve (AUC) from time 0 to time of last measurable concentration (AUCt), AUC from time 0 to infinity (AUC0-∞), and clearance using non-compartmental methods. […] Preliminary efficacy endpoints were overall response rate (ORR), clinical benefit rate (CBR), and duration of response (DOR) as evaluated per adapted IMWG[36] criteria for MM and per adapted International Working Group (IWG)[37] and European Leukemia Net (ELN)[38] criteria for AML. […]
# OCI-AML2 xenografts = assay: OCI-AML2 xenograft efficacy (tumor volume, body weight); conditions: for tumor response: for 20 days post-treatment
# Description: All animal studies were conducted in accordance with the guidelines approved by the Institutional Animal Care and Use Committees of AbbVie. The research protocol was approved by In Vivo Pharmacology at AbbVie prior to study initiation but was not publicly registered or disclosed. Female C.B-17 SCID-beige mice (AMO-1, OPM-2, NCI-H929, and OCI-AML2 xenografts) and female NSG mice (MV4-11-Red.Fluc systemic) were purchased from Charles River Laboratories (Wilmington, MA). Animals were housed in a light cycle-controlled room with HEPA filtration at 22 °C. Animals had nesting and climbing cage topper as the primary environmental enrichment. Animals were inoculated subcutaneously in the right flank with 5 × 10^6 (AMO-1, OPM-2, NCI-H929, and OCI-AML2) or intravenous (IV) with 5 × 10^6 (MV4-11-Red.Fluc). The inoculation volume (0.2 mL) comprised a 50:50 mixture of cells in growth media and Matrigel (BD Biosciences) for subcutaneous injections and 100% phosphate-buffered saline for IV administration. […] Electronic calipers were used to measure the length and width of each tumor 2 to 3 times per week. Tumor volume was estimated by applying the following equation: volume = length × width^2/2. All groups remained blinded during measurements and dosing; only veterinary staff were aware of group identity. When tumors reached approximately 200 mm^3, mice were randomized by match and distributed into treatment and control groups. All xenograft trials were conducted using 5 to 10 mice per group, and all mice were ear tagged and monitored individually throughout the studies.
# For combination studies, all compounds were administered within 30 min of each other.
# The tumor growth delay (TGD) percentage was determined as the percentage increase of the median time period for the treatment group to reach an arbitrary tumor volume of 1000 mm^3 relative to the vehicle control group. […] A power analysis was conducted using historical data to determine the number of animals required to yield significance of 0.05 at a 30% difference. There were no animals excluded. Data from experiments in vivo were analyzed using the student’s t-test for TGI values and the Mann–Whitney U test for TGD using Excel and GraphPad Prism. Fisher’s exact test was used to probe significance of differences in response frequency.
# [2] = human, intravenous, 0.32 mg/kg, Cycle 1 day 1, dose level 0.32 mg/kg (only half of this dose given), N=2, individual values
# [3] = human, intravenous, 0.53 mg/kg, Cycle 1 day 1, dose level 0.53 mg/kg (only half of this dose given), N=3
# [4] = human, intravenous, 0.53 mg/kg, Cycle 1 day 15, 0.53 mg/kg, N=2, individual values
# [5] = combined with venetoclax and 5-azacitidine
structure (smiles),measurement,setting,value
Cc1c(Cl)c2c(Cl)c(C)c1-c1c(-c3ccc(F)cc3)sc3ncnc(c13)O[C@@H](C(=O)O)Cc1cc(ccc1OCc1ccnc(-c3ccc(OC[C@H]4COCCO4)cc3)n1)OC[C@@H](CN1CCN(C)CC1)O2 [ABBV-467],concentration at […],"[1]; human, in vivo, 0.265 mg/kg, Cycle 1 Day 1, DOSE_MGKG 0.265, cohort 3, PKTIME 2.5, read-out: CONC_NGML",8.88 ng/mL
same,concentration at […],"[1]; human, in vivo, 0.265 mg/kg, Cycle 1 Day 1, DOSE_MGKG 0.265, cohort 3, PKTIME 8.5, read-out: CONC_NGML",0 ng/mL
same,concentration at […],"[1]; human, in vivo, 0.265 mg/kg, Cycle 1 Day 1, DOSE_MGKG 0.265, cohort 3, PKTIME 24.5, read-out: CONC_NGML",0 ng/mL
same,concentration at 0 h,"[1]; human, in vivo, 0.32 mg/kg, Cycle 1 Day 15, DOSE_MGKG 0.32, cohort 2, PKTIME 0, read-out: CONC_NGML",0 ng/mL
same,concentration at 20 min,"[1]; human, in vivo, 0.32 mg/kg, Cycle 1 Day 15, DOSE_MGKG 0.32, cohort 2, PKTIME 0.333333, read-out: CONC_NGML",646 ng/mL
same,concentration at […],"[1]; human, in vivo, 0.32 mg/kg, Cycle 1 Day 15, DOSE_MGKG 0.32, cohort 2, PKTIME 8.5, read-out: CONC_NGML",0 ng/mL
same,concentration at […],"[1]; human, in vivo, 0.32 mg/kg, Cycle 1 Day 15, DOSE_MGKG 0.32, cohort 2, PKTIME 24.5, read-out: CONC_NGML",0 ng/mL
same,concentration at 10 min,"[1]; human, in vivo, 0.53 mg/kg, Cycle 1 Day 15, DOSE_MGKG 0.53, cohort 3, PKTIME 0.166667, read-out: CONC_NGML",731 ng/mL
same,concentration at 20 min,"[1]; human, in vivo, 0.53 mg/kg, Cycle 1 Day 15, DOSE_MGKG 0.53, cohort 3, PKTIME 0.333333, read-out: CONC_NGML",1370 ng/mL
same,concentration at 0.5 h,"[1]; human, in vivo, 0.53 mg/kg, Cycle 1 Day 15, DOSE_MGKG 0.53, cohort 3, PKTIME 0.5, read-out: CONC_NGML",1860 ng/mL
same,concentration at 1.5 h,"[1]; human, in vivo, 0.53 mg/kg, Cycle 1 Day 15, DOSE_MGKG 0.53, cohort 3, PKTIME 1.5, read-out: CONC_NGML",87.9 ng/mL
same,concentration at […],"[1]; human, in vivo, 0.53 mg/kg, Cycle 1 Day 15, DOSE_MGKG 0.53, cohort 3, PKTIME 2.5, read-out: CONC_NGML",27.3 ng/mL
same,concentration at 4.5 h,"[1]; human, in vivo, 0.53 mg/kg, Cycle 1 Day 15, DOSE_MGKG 0.53, cohort 3, PKTIME 4.5, read-out: CONC_NGML",11.3 ng/mL
same,concentration at […],"[1]; human, in vivo, 0.53 mg/kg, Cycle 1 Day 15, DOSE_MGKG 0.53, cohort 3, PKTIME 8.5, read-out: CONC_NGML",0 ng/mL
same,concentration at […],"[1]; human, in vivo, 0.53 mg/kg, Cycle 1 Day 15, DOSE_MGKG 0.53, cohort 3, PKTIME 24.5, read-out: CONC_NGML",0 ng/mL
same,AUC(0-inf),[1]; [2],167 ng·h/mL
same,AUC(0-t),[1]; [2],159 ng·h/mL
same,clearance,[1]; [2],15.9 mL/min/kg
same,Cmax,[1]; [2],474 ng/mL
same,Tmax,[1]; [2],20 min
same,half-life,"[1]; human, intravenous, 0.32 mg/kg, Cycle 1 day 1, dose level 0.32 mg/kg (only half of this dose given), N=2, individual values, read-out: t1/2",50.8 min
same,AUC(0-inf),[1]; [3],435 ng·h/mL
same,AUC(0-t),[1]; [3],428 ng·h/mL
same,clearance,[1]; [3],10.2 mL/min/kg
same,half-life,"[1]; human, intravenous, 0.53 mg/kg, Cycle 1 day 1, dose level 0.53 mg/kg (only half of this dose given), N=3, harmonic mean (pseudo SD), read-out: t1/2",55.5 min
same,Tmax,"[1]; human, intravenous, 0.53 mg/kg, Cycle 1 day 1, dose level 0.53 mg/kg (only half of this dose given), N=3, median",30 min
same,AUC(0-inf),[1]; [4],933 ng·h/mL
same,AUC(0-t),[1]; [4],921 ng·h/mL
same,clearance,[1]; [4],9.47 mL/min/kg
same,Cmax,[1]; [4],1510 ng/mL
same,Tmax,[1]; [4],30 min
same,half-life,"[1]; human, intravenous, 0.53 mg/kg, Cycle 1 day 15, 0.53 mg/kg, N=2, individual values, read-out: t1/2",63.3 min
same,half-life,"[1]; human, intravenous, […], Cycle 1 day 1, dose level […] (only half of this dose given), N=3, harmonic mean (pseudo SD), read-out: t1/2",16.1 min
same,Tmax,"[1]; human, intravenous, […], Cycle 1 day 1, dose level […] (only half of this dose given), N=3, median",30 min
same,clearance,"[1]; human, intravenous, […], Cycle 1 day 15, […], N=3",10.4 mL/min/kg
same,Tmax,"[1]; human, intravenous, […], Cycle 1 day 15, […], N=3, median",30 min
same,half-life,"[1]; human, iv, patients, 30-minute IV infusion, 0.08–0.53 mg/kg, read-out: average half-life",< 60 min
same,time after completion of infusion at which circulating plasma concentrations were eliminated,"[1]; patients, 30-minute IV infusion",4 h
same,TGD,OCI-AML2 xenografts; combined with venetoclax,> 878%
same,TGI,OCI-AML2 xenografts; combined with venetoclax,99%
same,TGD,OCI-AML2 xenografts; [5],> 878%
same,TGI,OCI-AML2 xenografts; [5],99%
same,tumor response,OCI-AML2 xenografts; [5],complete tumor regression in all tumors
same,tumor response,OCI-AML2 xenografts; combined with venetoclax,complete tumor regression in all tumors
same,animals remaining tumor free at 120 days post-inoculation,OCI-AML2 xenografts; doublet (with venetoclax),62.5%
same,sensitivity of OCI-AML2 tumors,OCI-AML2 xenografts; in combination with 5-azacitidine,resistant
same,sensitivity of OCI-AML2 tumors,OCI-AML2 xenografts; monotherapy,resistant
same,animals remaining tumor free at 120 days post-inoculation,OCI-AML2 xenografts; triplet (with venetoclax and 5-azacitidine),62.5%
